Source: US11091479B2, “Triazolopyridin-3-ones or their salts and pharmaceutical compositions comprising the same” (YUHAN CORPORATION, priority 2018, dated 2021)
Counter-ions that a name gives are not always drawn.

Tests used:
Assay type in all cases: biochemical
[1] = target: T1, recombinant human MAO-B (monoamine oxidase-B) (Homo sapiens, UniProt P27338); experiment: Activity on recombinant human MAO-B, method similar to VAP-1 assay, 1 mM benzylamine substrate; conditions: read-out: Inhibitory Activity (IC50, nM) MAO-B
T1 construct: purchased Sigma-Aldrich
T1 sequence (P27338 1-520): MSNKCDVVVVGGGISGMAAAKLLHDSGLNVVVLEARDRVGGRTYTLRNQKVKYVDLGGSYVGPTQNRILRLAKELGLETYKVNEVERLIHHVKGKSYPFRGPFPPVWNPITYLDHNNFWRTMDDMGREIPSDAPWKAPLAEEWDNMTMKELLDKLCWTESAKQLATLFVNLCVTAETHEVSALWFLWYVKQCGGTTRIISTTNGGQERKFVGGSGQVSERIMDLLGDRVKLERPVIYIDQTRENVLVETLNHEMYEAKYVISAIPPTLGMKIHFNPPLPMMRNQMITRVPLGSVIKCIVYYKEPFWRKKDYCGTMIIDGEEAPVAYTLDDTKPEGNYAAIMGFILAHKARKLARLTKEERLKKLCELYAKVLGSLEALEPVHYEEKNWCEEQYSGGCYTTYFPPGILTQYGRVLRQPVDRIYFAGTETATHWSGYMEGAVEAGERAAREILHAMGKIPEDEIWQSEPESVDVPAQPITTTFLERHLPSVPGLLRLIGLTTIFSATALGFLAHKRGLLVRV
Description: (§1) The compounds according to the present technology were evaluated in terms of activity on recombinant human VAP-1 (R&D systems) by measuring the level of hydrogen peroxide in horseradish peroxidase (HRP)-coupled reaction using Amplex Red Hydrogen Peroxide Assay Kit (Molecular Probes, Invitrogen, USA). The experiment was carried out at room temperature using benzylamine as a substrate. In the HRP-coupled reaction, hydrogen peroxide oxidation of 10-acetyl-3,7-dihydroxyphenoxazine (Amplex Red reagent) produces resorufin, which is a highly fluorescent compound. Briefly, the test compound was dissolved in dimethyl sulfoxide (DMSO) at a concentration of 20 mM. The dose-response assessment was made by 1:3 serial dilution in DMSO, thereby creating a 8 point curve. The concentration of the upper part was controlled according to the efficacy of the compounds, followed by dilution with a reaction buffer solution to obtain a final DMSO concentration of less than 1%. To each well of a 96 black well plate, human VAP-1 purified in 50 mM sodium phosphate buffer solution (pH7.4) was added. The test compounds dissolved in DMSO were incubated with the human VAP-1 enzymes at 37° C. for 30 minutes. After 30-minute incubation, each well was added with a reaction mixture containing 200 uM Amplex Red reagent prepared from 50 mM sodium phosphate buffer solution (pH 7.4), 1 mM benzylamine, and 1 U/mL HRP. Fluorescence intensity was measured at several time points during 1-2 hours using a microplate reader (Flexstation3, Molecular Devices) under the wavelength condition exciting at 544 nm and reading the emission at 590 nm. The inhibitory effect of the compounds was measured as a decrease (%) in the signal rate as compared to the control group without any inhibitor (only diluted DMSO). Data was fixed to a logistic model with four variables and IC50 value was calculated using GraphPad Prism program.
(§2) In addition, the compounds according to the present technology were evaluated in terms of activity on a recombinant human MAO-A (monoamine oxidase-A, Sigma-Aldrich) and a recombinant human MAO-B(monoamine oxidase-B, Sigma-Aldrich) by using as substrates, 0.5 mM tyramine and 1 mM benzylamine, respectively, with a method similar to the activity evaluation method for recombinant human VAP-1. The compounds according to the present technology were also evaluated in terms of activity on a recombinant human DAO (diamine oxidase, R&D systems) by using as a substrate 1 mM putrescine with a method similar to the activity evaluation method for recombinant human VAP-1.

[2] = target: T2, recombinant human VAP-1 (Homo sapiens, UniProt Q16853); experiment: Activity on recombinant human VAP-1, HRP-coupled Amplex Red hydrogen peroxide assay, benzylamine substrate; conditions: 30 min incubation at 37° C., 1 mM benzylamine, read-out: Inhibitory Activity (IC50, nM) human VAP-1
T2 construct: purchased R&D systems
T2 sequence (Q16853 1-763): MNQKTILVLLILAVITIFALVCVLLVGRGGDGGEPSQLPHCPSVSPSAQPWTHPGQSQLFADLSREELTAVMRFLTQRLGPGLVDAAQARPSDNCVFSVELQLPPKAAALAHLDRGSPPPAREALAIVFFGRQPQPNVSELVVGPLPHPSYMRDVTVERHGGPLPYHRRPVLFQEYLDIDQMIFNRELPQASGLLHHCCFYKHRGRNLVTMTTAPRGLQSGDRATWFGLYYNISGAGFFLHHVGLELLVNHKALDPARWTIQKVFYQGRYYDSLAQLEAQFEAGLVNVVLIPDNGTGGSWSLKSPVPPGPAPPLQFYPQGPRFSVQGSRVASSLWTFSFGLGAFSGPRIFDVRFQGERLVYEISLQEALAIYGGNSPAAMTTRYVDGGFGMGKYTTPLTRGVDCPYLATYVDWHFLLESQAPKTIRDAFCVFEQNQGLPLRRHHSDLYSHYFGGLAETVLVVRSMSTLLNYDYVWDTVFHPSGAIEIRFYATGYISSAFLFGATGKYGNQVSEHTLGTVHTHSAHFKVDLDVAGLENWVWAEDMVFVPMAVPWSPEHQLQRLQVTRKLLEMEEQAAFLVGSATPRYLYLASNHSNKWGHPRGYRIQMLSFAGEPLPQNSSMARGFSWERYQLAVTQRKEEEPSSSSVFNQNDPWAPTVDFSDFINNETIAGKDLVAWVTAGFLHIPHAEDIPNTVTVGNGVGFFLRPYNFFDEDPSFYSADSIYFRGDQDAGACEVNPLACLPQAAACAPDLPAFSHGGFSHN
Description: as §1

[3] = target: T3, recombinant human DAO (diamine oxidase) (Homo sapiens, UniProt P19801); experiment: Activity on recombinant human DAO, method similar to VAP-1 assay, 1 mM putrescine substrate; conditions: read-out: Inhibitory Activity (IC50, nM) DAO
T3 construct: purchased R&D systems
T3 sequence (P19801 20-751): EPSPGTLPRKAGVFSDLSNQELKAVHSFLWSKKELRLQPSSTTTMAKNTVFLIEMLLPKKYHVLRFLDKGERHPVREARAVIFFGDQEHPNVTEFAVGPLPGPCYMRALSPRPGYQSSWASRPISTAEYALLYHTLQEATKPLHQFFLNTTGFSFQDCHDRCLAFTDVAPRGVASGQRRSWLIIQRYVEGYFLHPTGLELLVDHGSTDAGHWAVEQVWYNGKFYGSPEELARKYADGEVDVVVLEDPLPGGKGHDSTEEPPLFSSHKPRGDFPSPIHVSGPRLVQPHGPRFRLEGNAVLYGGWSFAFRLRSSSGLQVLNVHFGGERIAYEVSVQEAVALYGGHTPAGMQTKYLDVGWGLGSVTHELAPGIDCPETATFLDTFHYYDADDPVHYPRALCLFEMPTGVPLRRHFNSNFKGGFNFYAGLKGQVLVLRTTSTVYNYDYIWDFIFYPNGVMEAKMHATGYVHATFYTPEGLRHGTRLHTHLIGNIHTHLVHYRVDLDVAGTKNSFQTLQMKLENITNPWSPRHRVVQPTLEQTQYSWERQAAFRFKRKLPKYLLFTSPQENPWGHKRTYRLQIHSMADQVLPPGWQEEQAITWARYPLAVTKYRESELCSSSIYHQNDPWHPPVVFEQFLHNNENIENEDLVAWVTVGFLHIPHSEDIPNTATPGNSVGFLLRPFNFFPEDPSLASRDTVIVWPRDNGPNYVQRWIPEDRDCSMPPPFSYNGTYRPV
Description: as §1, §2

[4] = target: T4, recombinant human MAO-A (monoamine oxidase-A) (Homo sapiens, UniProt P21397); experiment: Activity on recombinant human MAO-A, method similar to VAP-1 assay, 0.5 mM tyramine substrate; conditions: read-out: Inhibitory Activity (IC50, nM) MAO-A
T4 construct: purchased Sigma-Aldrich
T4 sequence (P21397 1-527): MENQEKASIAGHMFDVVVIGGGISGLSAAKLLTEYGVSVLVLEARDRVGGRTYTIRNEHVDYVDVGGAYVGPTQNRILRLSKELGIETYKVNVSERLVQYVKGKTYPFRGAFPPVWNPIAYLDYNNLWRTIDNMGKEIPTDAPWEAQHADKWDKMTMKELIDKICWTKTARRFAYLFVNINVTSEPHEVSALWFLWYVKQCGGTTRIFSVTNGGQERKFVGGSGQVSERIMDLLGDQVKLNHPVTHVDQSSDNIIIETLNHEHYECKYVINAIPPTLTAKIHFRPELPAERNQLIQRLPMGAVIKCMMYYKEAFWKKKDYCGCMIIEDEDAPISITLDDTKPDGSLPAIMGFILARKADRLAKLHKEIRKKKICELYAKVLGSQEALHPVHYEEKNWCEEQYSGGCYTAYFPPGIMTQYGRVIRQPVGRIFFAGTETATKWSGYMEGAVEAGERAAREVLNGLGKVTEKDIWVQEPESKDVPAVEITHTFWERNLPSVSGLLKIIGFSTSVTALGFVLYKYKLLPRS
Description: as §1, §2

IC50 [1] [nM] | IC50 [2] [nM] | IC50 [3] [nM] | IC50 [4] [nM] | Compound
8.4 | 0.3 | 1.1 | 68000 | NC/C(=C\F)Cn1nc2cc(-c3ccc(C(F)(F)F)nc3)ccn2c1=O [Example 30, 2-[(2E)-2-(aminomethyl)-3-fluoroprop-2-en-1-yl]-7-[6-(trifluoromethyl)pyridin-3-yl][1,2,4]triazolo[4,3-a]pyridin-3(2H)-one hydrochloride]
190 | 0.1 | 0.3 | 26000 | NC/C(=C\F)Cn1nc2cc(-c3ccc4cn[nH]c4c3)ccn2c1=O [Example 37, 2-[(2E)-2-(aminomethyl)-3-fluoroprop-2-en-1-yl]-7-(1H-indazol-6-yl)[1,2,4]triazolo[4,a]pyridin-3(2H)-one hydrochloride]
5300 | 0.3 | 34 | > 100000 | NCC(Cn1nc2cc(C#Cc3ccc(N4CCOCC4)nc3)ccn2c1=O)=C(F)F [Example 58, 2-[2-(aminomethyl)-3,3-difluoro-allyl]-7-[2-(6-morpholino-3-pyridyl)ethynyl]-[1,2,4]triazolo[4,3-a]pyridin-3-one trifluoroacetate]
2500 | 1 | 6300 | > 100000 | Cn1cc(C#Cc2ccn3c(=O)n(CC(CN)=C(F)F)nc3c2)cn1 [Example 56, 2-[2-(aminomethyl)-3,3-difluoro-allyl]-7-[2-(1-methylpyrazol-4-yl)ethynyl]-[1,2,4]triazolo[4,3-a]pyridin-3-one trifluoroacetate]
5100 | 0.4 | 1800 | > 100000 | CCn1cc(-c2ccn3c(=O)n(CC(CN)=C(F)F)nc3c2)cn1 [Example 55, 2-[2-(aminomethyl)-3,3-difluoro-allyl]-7-(1-ethylpyrazol-4-yl)-[1,2,4]triazolo[4,3-a]pyridin-3-one trifluoroacetate]
180 | 0.7 | 12 | > 100000 | CS(=O)(=O)c1cccc(-c2ccn3c(=O)n(C/C(=C/F)CN)nc3c2)c1 [Example 22, 2-[(2E)-2-(aminomethyl)-3-fluoroprop-2-en-1-yl]-7-[3-(methylsulfonyl)phenyl][1,2,4]triazolo[4,3-a]pyridin-3(2H)-one hydrochloride]
> 100000 | 2.2 | 320 | > 100000 | CN1CCOc2cc(C#Cc3ccn4c(=O)n(CC(CN)=C(F)F)nc4c3)ccc21 [Example 63, 2-[2-(aminomethyl)-3,3-difluoro-allyl]-7-[2-(4-methyl-2,3-dihydro-1,4-benzoxazin-7-yl)ethynyl]-[1,2,4]triazolo[4,3-a]pyridin-3-one trifluoroacetate]
19 | 0.4 | 24 | > 100000 | CN(C)c1ccc(-c2ccn3c(=O)n(C/C(=C/F)CN)nc3c2)cn1 [Example 32, 2-[(2E)-2-(aminomethyl)-3-fluoroprop-2-en-1-yl]-7-[6-(dimethylamino)pyridin-3-yl][1,2,4]triazolo[4,3-a]pyridin-3(2H)-one hydrochloride]
> 100000 | 36 | 26000 | > 100000 | NCC(Cn1nc2ccc(Br)cn2c1=O)=C(F)F [Example 46, 2-[2-(aminomethyl)-3,3-difluoro-allyl]-6-bromo-[1,2,4]triazolo[4,3-a]pyridin-3-one trifluoroacetate]
37000 | 0.6 | 220 | > 100000 | NCC(Cn1nc2cc(C#Cc3cnc4c(c3)OCCN4)ccn2c1=O)=C(F)F [Example 61, 2-[2-(aminomethyl)-3,3-difluoro-allyl]-7-[2-(3,4-dihydro-2H-pyrido[3,2-b][1,4]oxazin-7-yl)ethynyl]-[1,2,4]triazolo[4,3-a]pyridin-3-one ditrifluoroacetate]
100 | 0.2 | 3 | > 100000 | NCC(Cn1nc2cc(-c3ccc(C(F)(F)F)nc3)ccn2c1=O)=C(F)F [Example 50, 2-[2-(aminomethyl)-3,3-difluoro-allyl]-7-[6-(trifluoromethyl)-3-pyridyl]-[1,2,4]triazolo[4,3-a]pyridin-3-one trifluoroacetate]
